Test results from patent publication US20110053984A1, “NOVEL 4-BENZHYDRYLOXY-TETRAALKYL-PIPERIDINE DERIVATIVES AND THEIR USE AS MONOAMINE NEUROTRANSMITTER RE-UPTAKE INHIBITORS” (NeuroSearch A/S, priority 2008, published 2011).
Structures can show the parent of a compound that is named as a salt.

Assays:
[1] = target: T1, serotonine (5-HT) reuptake in synaptosomes (Rattus norvegicus, UniProt P31652); test: Inhibition of 5-HT reuptake in synaptosomes; type: biochemical; conditions: 3H-5-HT, read-out: 5-HT-uptake IC50
T1 construct: in synaptosomes as described in WO 97/16451; from tissue
T1 sequence (P31652 whole entry): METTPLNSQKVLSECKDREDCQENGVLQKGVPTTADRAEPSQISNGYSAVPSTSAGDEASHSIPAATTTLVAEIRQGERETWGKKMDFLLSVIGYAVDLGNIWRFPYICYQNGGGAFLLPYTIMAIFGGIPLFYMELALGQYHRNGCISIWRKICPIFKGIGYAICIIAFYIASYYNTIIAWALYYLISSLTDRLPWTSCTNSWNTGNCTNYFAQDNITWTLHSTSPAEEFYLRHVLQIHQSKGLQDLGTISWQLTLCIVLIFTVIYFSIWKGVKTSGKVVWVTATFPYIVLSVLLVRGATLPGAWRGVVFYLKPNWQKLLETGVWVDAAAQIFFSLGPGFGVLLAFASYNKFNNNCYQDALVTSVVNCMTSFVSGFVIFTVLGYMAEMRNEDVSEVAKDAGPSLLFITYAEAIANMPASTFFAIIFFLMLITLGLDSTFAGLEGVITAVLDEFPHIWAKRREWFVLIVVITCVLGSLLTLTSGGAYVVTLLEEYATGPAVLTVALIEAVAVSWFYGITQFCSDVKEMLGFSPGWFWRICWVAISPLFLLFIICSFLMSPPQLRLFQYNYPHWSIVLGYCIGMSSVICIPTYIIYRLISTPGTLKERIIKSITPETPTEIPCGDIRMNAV
Protocol: (§1) Compounds were tested for their ability to inhibit the reuptake of the monoamine neurotransmitters dopamine (DA) noradrenaline (NA) and serotonine (5-HT) in synaptosomes as described in WO 97/16451 (NeuroSearch A/S).
(§2) The test values are given as IC50 (the concentration (μM) of the test substance which inhibits the specific binding of ^3H-DA, ^3H-NA, or ^3H-5-HT by 50%).

[2] = target: T2, noradrenaline (NA) reuptake in synaptosomes (Rattus norvegicus, UniProt Q63380); test: Inhibition of NA reuptake in synaptosomes; type: biochemical; conditions: 3H-NA, read-out: NA-uptake IC50
T2 construct: in synaptosomes as described in WO 97/16451; from tissue
T2 sequence (Q63380 1-617): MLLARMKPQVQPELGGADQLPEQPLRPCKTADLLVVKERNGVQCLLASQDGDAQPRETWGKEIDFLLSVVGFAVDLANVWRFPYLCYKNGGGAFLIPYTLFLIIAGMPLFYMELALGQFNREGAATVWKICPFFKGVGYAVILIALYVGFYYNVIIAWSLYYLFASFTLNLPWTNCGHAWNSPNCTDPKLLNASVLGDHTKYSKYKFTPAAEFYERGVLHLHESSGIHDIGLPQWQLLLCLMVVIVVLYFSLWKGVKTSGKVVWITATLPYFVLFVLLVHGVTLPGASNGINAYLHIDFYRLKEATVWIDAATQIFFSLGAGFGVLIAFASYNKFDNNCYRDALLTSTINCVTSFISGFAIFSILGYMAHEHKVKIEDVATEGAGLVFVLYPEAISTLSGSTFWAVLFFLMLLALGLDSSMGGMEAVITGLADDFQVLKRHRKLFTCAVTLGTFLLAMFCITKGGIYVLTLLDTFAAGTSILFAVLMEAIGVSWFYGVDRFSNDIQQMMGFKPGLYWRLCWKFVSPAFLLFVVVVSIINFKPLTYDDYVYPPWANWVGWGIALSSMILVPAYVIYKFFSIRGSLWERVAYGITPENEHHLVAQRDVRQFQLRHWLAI
Protocol: as §1, §2

[3] = target: T3, dopamine (DA) reuptake in synaptosomes (Rattus norvegicus, UniProt P23977); test: Inhibition of DA reuptake in synaptosomes; type: biochemical; conditions: 3H-DA, read-out: DA-uptake IC50
T3 construct: in synaptosomes as described in WO 97/16451; from tissue
T3 sequence (P23977 whole entry): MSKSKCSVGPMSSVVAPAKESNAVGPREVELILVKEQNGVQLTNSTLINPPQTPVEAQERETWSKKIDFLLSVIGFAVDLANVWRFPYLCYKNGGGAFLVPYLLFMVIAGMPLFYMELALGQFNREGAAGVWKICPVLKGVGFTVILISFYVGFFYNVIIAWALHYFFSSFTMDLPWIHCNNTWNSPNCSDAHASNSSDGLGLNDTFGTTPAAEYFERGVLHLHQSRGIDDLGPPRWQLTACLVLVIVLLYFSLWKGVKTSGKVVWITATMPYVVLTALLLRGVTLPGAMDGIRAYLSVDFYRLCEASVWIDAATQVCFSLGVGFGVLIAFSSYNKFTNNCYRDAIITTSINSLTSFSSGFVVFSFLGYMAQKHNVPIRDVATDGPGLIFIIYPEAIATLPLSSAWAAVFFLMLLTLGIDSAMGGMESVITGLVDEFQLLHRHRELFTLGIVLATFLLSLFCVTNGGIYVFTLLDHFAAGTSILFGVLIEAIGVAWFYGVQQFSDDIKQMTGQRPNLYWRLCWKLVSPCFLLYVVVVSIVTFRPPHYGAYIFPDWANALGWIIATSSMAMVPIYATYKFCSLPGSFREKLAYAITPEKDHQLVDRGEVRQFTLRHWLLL
Protocol: as §1, §2

Compound | melting point [°C] | IC50 [1] [µM] | IC50 [2] [µM] | IC50 [3] [µM]
CC1(C)CC(OC(c2ccccc2)c2ccccc2)CC(C)(C)N1 (as salt: hydrochloric acid salt) [4-Benzhydryloxy-2,2,6,6-tetramethyl-piperidine] | 184.1 to 185.9 | – | – | –
CC1(C)CC(OC(c2ccc(F)cc2)c2ccc(F)cc2)CC(C)(C)N1 (as salt: hydrochloric acid salt) [4-[Bis-(4-fluoro-phenyl)-methoxy]-2,2,6,6-tetramethyl-piperidine] | 242 to 265 | – | – | –
CC1(C)CC(OC(c2ccccc2)c2ccccc2)CC(C)(C)N1 [4-Benzhydryloxy-2,2,6,6-tetramethyl-piperidine] | – | 26 | 0.06 | 0.4
CC1(C)CC(OC(c2ccc(F)cc2)c2ccc(F)cc2)CC(C)(C)N1 [4-[Bis-(4-fluoro-phenyl)-methoxy]-2,2,6,6-tetramethyl-piperidine] | – | > 1 | 0.59 | 0.038
